Consider eight compounds from patent US20250387400A1, “TYK2 INHIBITORS” (BIOGEN MA INC., priority 2022, published 2025).

Like-named read-outs stand apart in the source and are kept apart here.

What all share (assay type): biochemical
Test [1] deals with T1, catalytic kinase (JH1) domain of human JAK3 (Homo sapiens, UniProt P52333).
T1 construct: Catalytic activities of recombinant JAK2, JAK3 and TYK2 kinase domain
Kind of test: ADP-Glo kinase assay, JAK3 kinase domain.

The target in test [2] is T2, catalytic kinase (JH1) domain of human TYK2 (Homo sapiens, UniProt P29597).
T2 construct: recombinantly generated catalytic kinase (also known as JH1) domain of human JAK1, JAK2, JAK3 and TYK2
T2 sequence (P29597 897-1176 limits assumed): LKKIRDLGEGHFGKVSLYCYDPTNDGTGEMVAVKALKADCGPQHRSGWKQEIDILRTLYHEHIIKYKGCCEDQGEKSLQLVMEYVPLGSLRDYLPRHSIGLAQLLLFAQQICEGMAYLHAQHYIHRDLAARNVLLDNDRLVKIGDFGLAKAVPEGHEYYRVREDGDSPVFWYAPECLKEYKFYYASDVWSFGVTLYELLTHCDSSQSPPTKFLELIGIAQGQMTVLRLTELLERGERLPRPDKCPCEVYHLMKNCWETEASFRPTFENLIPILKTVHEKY
Nature of the test: ADP-Glo kinase assay, TYK2 kinase domain.

In test [3] the target is T3, catalytic kinase (JH1) domain of human JAK1 (Homo sapiens, UniProt P23458).
T3 construct: 4 nM of recombinant JAK1 kinase domain is used to phosphorylate
T3 sequence (P23458 875-1153 limits assumed): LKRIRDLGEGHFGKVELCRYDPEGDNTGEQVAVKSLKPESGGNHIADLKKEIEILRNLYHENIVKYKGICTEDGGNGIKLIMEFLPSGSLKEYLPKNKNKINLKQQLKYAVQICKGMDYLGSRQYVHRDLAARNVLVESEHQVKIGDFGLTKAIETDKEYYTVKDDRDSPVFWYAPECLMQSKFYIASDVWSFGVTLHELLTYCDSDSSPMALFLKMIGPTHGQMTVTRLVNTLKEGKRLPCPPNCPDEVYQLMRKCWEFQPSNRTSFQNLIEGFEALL
Nature of the test: ADP-Glo kinase assay, JAK1 kinase domain.

Test [4] concerns the target T4, catalytic kinase (JH1) domain of human JAK2 (Homo sapiens, UniProt O60674).
T4 construct: Catalytic activities of recombinant JAK2, JAK3 and TYK2 kinase domain
Kind of test: ADP-Glo kinase assay, JAK2 kinase domain.

Setting [5] is: 0.3 nM recombinant JAK3 kinase domain, 50 μM JAK3-974 peptide, 4 μM ATP, 100 minutes, read-out: JAK3 biochem IC50 (nM) Mean.
Setting [6] is: 2 nM recombinant TYK2 kinase domain, 50 μM JAK3-974 peptide, 10 μM ATP, 100 minutes, read-out: TYK2 biochem IC50 (nM) Mean.
[7] abbreviates: 4 nM recombinant JAK1 kinase domain, 50 μM JAK3-342 peptide, 35 μM ATP, 100 minutes, read-out: JAK1 biochem IC50 (nM) Mean.
Where [8] appears, read: 0.2 nM recombinant JAK2 kinase domain, 50 μM JAK3-974 peptide, 15 μM ATP, 100 minutes, read-out: JAK2 biochem IC50 (nM) Mean.

T1 sequence (P52333 822-1111 limits assumed): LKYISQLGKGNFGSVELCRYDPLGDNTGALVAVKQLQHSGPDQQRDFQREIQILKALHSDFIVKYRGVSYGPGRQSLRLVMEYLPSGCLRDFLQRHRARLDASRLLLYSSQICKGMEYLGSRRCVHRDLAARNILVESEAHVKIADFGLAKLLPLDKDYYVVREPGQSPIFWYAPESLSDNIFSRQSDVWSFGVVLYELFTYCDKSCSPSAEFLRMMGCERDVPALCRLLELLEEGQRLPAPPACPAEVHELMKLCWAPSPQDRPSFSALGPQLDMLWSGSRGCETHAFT
T4 sequence (O60674 849-1124 limits assumed): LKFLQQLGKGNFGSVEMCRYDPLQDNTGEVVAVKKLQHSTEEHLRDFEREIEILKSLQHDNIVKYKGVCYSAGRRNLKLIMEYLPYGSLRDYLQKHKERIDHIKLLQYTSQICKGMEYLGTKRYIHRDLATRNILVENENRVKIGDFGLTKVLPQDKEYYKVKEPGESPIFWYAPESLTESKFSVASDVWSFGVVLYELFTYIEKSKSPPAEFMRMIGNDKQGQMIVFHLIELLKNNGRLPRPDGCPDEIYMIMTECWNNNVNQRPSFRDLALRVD

With `Cc1cc(-c2cc3c(N4CC5CCC(C4)N5C4CC(C#N)C4)ccnn3c2)cnn1` (centres unmarked) [Example 57, 3-(3-(6-(6-methylpyridazin-4-yl)pyrrolo[1,2-b]pyridazin-4-yl)-3,8-diazabicyclo[3.2.1]octan-8-yl)cyclobutane-1-carbonitrile], the 50% inhibitory concentration (IC50) in test [1] (setting [5]) stood at 690 nM; in test [2] (setting [6]), 13 nM; in test [3] (setting [7]) it was 134 nM; in test [4] (setting [8]), 108 nM.
For `Cc1cc(-c2cc3c(N4CC5CCC(C4)N5[C@H]4C[C@H](C#N)C4)ccnn3c2)on1` [Example 58, (1R,3r)-3-(3-(6-(3-methylisoxazol-5-yl)pyrrolo[1,2-b]pyridazin-4-yl)-3,8-diazabicyclo[3.2.1]octan-8-yl)cyclobutane-1-carbonitrile], the IC50 in test [1] came to 3450 nM; in test [2], 40.5 nM; in test [3] it was 795 nM; in test [4] it was 385 nM.
For `Cc1cc(-c2cc3c(N4CC5CCC(C4)N5[C@H]4C[C@@H](C#N)C4)ccnn3c2)on1` [Example 59, (1S,3s)-3-(3-(6-(3-methylisoxazol-5-yl)pyrrolo[1,2-b]pyridazin-4-yl)-3,8-diazabicyclo[3.2.1]octan-8-yl)cyclobutane-1-carbonitrile], in that order: 220 nM, 4.25 nM, 65.5 nM and 26 nM.
In the case of `N#C[C@H]1C[C@@H](N2C3CCC2CN(c2ccnn4cc(-c5cnn(C(F)F)c5)cc24)C3)C1` [Example 60, (1S,3s)-3-(3-(6-(1-(difluoromethyl)-1H-pyrazol-4-yl)pyrrolo[1,2-b]pyridazin-4-yl)-3,8-diazabicyclo[3.2.1]octan-8-yl)cyclobutane-1-carbonitrile], the IC50 came out at 132 nM in test [1] (setting [5]), 2.38 nM in test [2] (setting [6]), 25.5 nM in test [3] (setting [7]) and 17.5 nM in test [4] (setting [8]).
For `Cn1cc(-c2cc3c(N4CC5CCC(C4)N5[C@H]4C[C@H](C#N)C4)ncnc3[nH]2)cn1` [Example 63, (1R,3r)-3-(3-(6-(1-methyl-1H-pyrazol-4-yl)-7H-pyrrolo[2,3-d]pyrimidin-4-yl)-3,8-diazabicyclo[3.2.1]octan-8-yl)cyclobutane-1-carbonitrile], in that order: 1650 nM, 260 nM, 4250 nM and 1800 nM.
Turning to `Cn1cc(-c2cc3c(N4CC5CCC(C4)N5[C@H]4C[C@@H](C#N)C4)ncnc3[nH]2)cn1` [Example 64, (1S,3s)-3-(3-(6-(1-methyl-1H-pyrazol-4-yl)-7H-pyrrolo[2,3-d]pyrimidin-4-yl)-3,8-diazabicyclo[3.2.1]octan-8-yl)cyclobutane-1-carbonitrile], the IC50 in test [1] (setting [5]) is 205 nM; in test [2] (setting [6]) it was 41.5 nM; in test [3] (setting [7]) it was 340 nM; in test [4] (setting [8]), 260 nM.
With `Cn1cc(-c2cn3nccc(N4CC5CCC(C4)N5[C@H]4C[C@@H](C#N)C4)c3n2)cn1` [Example 65, (1S,3s)-3-(3-(2-(1-methyl-1H-pyrazol-4-yl)imidazo[1,2-b]pyridazin-8-yl)-3,8-diazabicyclo[3.2.1]octan-8-yl)cyclobutane-1-carbonitrile], the IC50 in test [1] worked out at 1650 nM; in test [2], 70.7 nM; in test [3], 227 nM; in test [4] it was 293 nM.
Taken in the same sequence, the figures for `Cn1cc(-c2cn3nccc(N4CC5CCC(C4)N5[C@H]4C[C@H](C#N)C4)c3n2)cn1` [Example 66, (1R,3r)-3-(3-(2-(1-methyl-1H-pyrazol-4-yl)imidazo[1,2-b]pyridazin-8-yl)-3,8-diazabicyclo[3.2.1]octan-8-yl)cyclobutane-1-carbonitrile] were 102 nM, 3.83 nM, 15.1 nM and 21.3 nM.
